The target of assay [1] is T1, B2-AR (Homo sapiens, UniProt P07550).
T1 construct: expressed in transfected cells; host or cells: CHO-K1
The assay is described as follows: cAMP Gs dynamic HTRF assay, cells expressing beta-adrenergic receptor (CHO-K1), B2-AR. Type of assay: cell-based. The following applies: for EC50: cAMP HTRF, read-out: pEC50 [B2-AR] (converted); for Emax: relative to full agonist isoproterenol, read-out: Emax (% iso) (%) [B2-AR]. On the procedure: (§1) cAMP homogeneous time-resolved fluorescence (HTRF): experimental methods. Compound efficacy is determined using the cAMP Gs dynamic HTRF assay (Cisbio, catalog #62AM4PEC) largely following the manufacturer's instructions, also detailed below.
(§2) Standard serial dilution curves are 10-point, 5-fold dilutions starting from a highest concentration of 10 μM. Controls present on every assay plate are 0.1% DMSO (vehicle control), 1 μM isoproterenol (full beta-adrenergic agonist control) and […] xamoterol (partial beta-adrenergic agonist control). […] Assay plates are centrifuged at 500×g for 10 seconds. Compounds and IBMX are prepared at 2× final dose to compensate for addition of cells.
(§3) Cell preparation: 1× stimulation buffer, washing PBS (Dulbecco's phosphate-buffered saline, − Mg − Ca; Caisson Labs, catalog #PBL01), assay PBS (Dulbecco's phosphate-buffered saline, + Mg, + Ca; Caisson Labs, catalog #PBL02) and Versene (0.02% EDTA disodium salt solution in PBS without calcium or magnesium; Caisson Labs, catalog #EDL01) are pre-warmed to 37° C. Cells expressing beta-adrenergic receptor were washed in washing PBS to remove growth medium and then released from the surface by incubating with Versene for 5-10 minutes at 37° C. Cells are harvested using assay PBS, counted manually by hemocytometer or by an automated cell counter, pelleted by centrifugation (200×g, 5 minutes) and resuspended in 37° C. 1× stimulation buffer to a final density of 1.5×10^6 cells/mL. 5 μL of the suspended cell solution (7500 cell total) are added to all wells of the 384 well assay plate, the assay plate was covered with an Axygen® plate seal (Corning PCR-SP) and incubated in a humidified 37° C. environment supplemented with 5% CO2 for 30 minutes.
(§4) HTRF reagent addition, reading and data analysis: After 30 minutes of cell stimulation with test compound, the assay plates are centrifuged at 500×g for 10 seconds, and incubation was stopped with the addition of 5 μL cAMP-D2 acceptor, diluted 1:21 in detection and lysis buffer 2 (Cisbio 62CL2FDF) was added to all cells. Subsequently, 5 μL Anti-cAMP-Eu Donor, diluted 1:21 in detection and lysis buffer 2, was added to cells. Plates were sealed and reactions gently ‘vortexed’ at 900 rpm on a Heidolph Titramax 1000 for at least 30 minutes at room temperature. Plates are centrifuged again at 500×g for 10 seconds, and HTRF was measured using a Tecan Spark plate reader at 50 flashes per well. […] Potency estimates (EC50 and pEC50) are derived from the four-parameter nonlinear regression of the concentration-effect curve and an estimate of relative efficacy is determined by comparing the magnitude of the test compound HTRF signal window (min−max dose) with the signal window of the full agonist control, isoproterenol.

For assay [2], the target named is T2, B1-AR (Homo sapiens, UniProt P08588).
T2 construct: expressed in transfected cells; host or cells: CHO-K1
T2 sequence (P08588 whole entry, species assumed): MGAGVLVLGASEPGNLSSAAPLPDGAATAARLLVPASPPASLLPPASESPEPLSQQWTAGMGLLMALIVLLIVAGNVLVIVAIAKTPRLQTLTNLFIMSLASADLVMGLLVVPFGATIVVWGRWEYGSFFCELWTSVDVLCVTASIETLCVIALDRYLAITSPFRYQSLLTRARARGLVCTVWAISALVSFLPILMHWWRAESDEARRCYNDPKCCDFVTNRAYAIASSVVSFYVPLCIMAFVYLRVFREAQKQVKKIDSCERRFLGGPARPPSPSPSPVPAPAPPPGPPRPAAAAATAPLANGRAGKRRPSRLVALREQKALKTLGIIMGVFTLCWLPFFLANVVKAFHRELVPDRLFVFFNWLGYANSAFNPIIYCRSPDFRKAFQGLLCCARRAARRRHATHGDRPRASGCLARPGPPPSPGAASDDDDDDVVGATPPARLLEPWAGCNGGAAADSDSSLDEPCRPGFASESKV
The experiment in a line: cAMP Gs dynamic HTRF assay, cells expressing beta-adrenergic receptor (CHO-K1), B1-AR. Type of assay: cell-based. The following applies: for EC50: cAMP HTRF, read-out: pEC50 [B1-AR] (converted); for Emax: relative to full agonist isoproterenol, read-out: Emax (% iso) (%) [B1-AR]. On the procedure:
as §1, §2, §3, §4
A general note: Time-resolved FRET reads energy transfer from a long-lived donor to a nearby acceptor.

SMILES strings stand for the structures. Where two headings read alike, the source gives them in different places.

T1 sequence (P07550 whole entry, species assumed): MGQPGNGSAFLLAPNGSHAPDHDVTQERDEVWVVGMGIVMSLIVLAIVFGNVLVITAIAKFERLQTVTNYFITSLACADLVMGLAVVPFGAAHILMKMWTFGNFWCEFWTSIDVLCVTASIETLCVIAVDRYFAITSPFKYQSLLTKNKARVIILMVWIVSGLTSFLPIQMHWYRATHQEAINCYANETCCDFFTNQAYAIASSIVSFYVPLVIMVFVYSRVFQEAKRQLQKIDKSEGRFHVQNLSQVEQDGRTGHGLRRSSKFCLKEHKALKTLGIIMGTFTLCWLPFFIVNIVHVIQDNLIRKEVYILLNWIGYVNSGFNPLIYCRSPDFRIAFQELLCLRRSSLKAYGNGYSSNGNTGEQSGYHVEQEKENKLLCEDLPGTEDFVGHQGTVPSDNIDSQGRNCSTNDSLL

Usually Emax stands for the maximal effect, on the per cent scale that the assay sets. Consider `CC(C)(NC[C@H](O)c1cc(C#N)cc2[nH]ncc12)C1CC1` [I-1], for which the EC50 in assay [1] (CHO-K1 cells) is 10 to 100 nM; in assay [2] it was 100 to 1000 nM. Further, the Emax in assay [1] (CHO-K1 cells) and in assay [2] was more than 90% in each case.

As to `C[C@H](NC[C@H](O)c1cccc2c1C(F)(F)C(=O)N2)C(C)(C)C` [I-2], in assay [1] (CHO-K1 cells), the EC50 was 10 to 100 nM and the Emax was more than 90%. Moreover, in assay [2], the EC50 was more than 1000 nM and the Emax was 50 to 70%.

With `C[C@H](NC[C@H](O)c1ccc(Cl)c2[nH]ncc12)C(C)(C)C` [I-3], the Emax was in the range of 70 to 90% in assay [1] (CHO-K1, CHO-K1 cells) and 50 to 70% in assay [2]. Further, the EC50 in assay [1] (CHO-K1 cells) was less than 10 nM; in assay [2], 100 to 1000 nM.

In the case of `CC(C)(C)C(C)(C)NC[C@H](O)c1cc(C#N)cc2[nH]ncc12` [I-4], the Emax was more than 90% in assay [1] (CHO-K1, CHO-K1 cells) and less than 50% in assay [2]. The EC50 in assay [1] (CHO-K1 cells) is 100 to 1000 nM; in assay [2] it was more than 1000 nM.

With `C[C@H](NC[C@H](O)c1cc(C#N)cc2[nH]ncc12)C(C)(C)C` [I-5], the Emax in assay [1] (CHO-K1, CHO-K1 cells) was in the range of 70 to 90%; in assay [2], 50 to 70%. Further, the EC50 is 100 to 1000 nM in assay [1] (CHO-K1 cells) and more than 1000 nM in assay [2].

Regarding `C[C@H](NC[C@H](O)c1cccc2[nH]ncc12)C(C)(C)C` [I-6], the Emax in assay [1] (CHO-K1, CHO-K1 cells) was more than 90%; in assay [2] it was 70 to 90%. Moreover, the EC50 is less than 10 nM in assay [1] (CHO-K1 cells) and 100 to 1000 nM in assay [2].

`CC(C)(C)C(C)(C)NC[C@H](O)c1cccc2[nH]ncc12` [I-7]: the maximal response (Emax) in assay [1] (CHO-K1, CHO-K1 cells) was more than 90%; in assay [2], more than 90%. Besides, the results for the EC50 in assay [1] (CHO-K1 cells) and in assay [2] were less than 10 nM and 100 to 1000 nM, respectively.

With `CC(C)(C)C(C)(C)NC[C@H](O)c1ccc(F)c2[nH]ncc12` [I-8], the EC50 in assay [1] (CHO-K1 cells) is less than 10 nM; in assay [2], more than 1000 nM. Further, the Emax is more than 90% in assay [1] (CHO-K1 cells) and 70 to 90% in assay [2].

For `C[C@@H](NC[C@H](O)c1cccc2[nH]ncc12)C(C)(C)C` [I-9], the Emax in assay [1] (CHO-K1, CHO-K1 cells) is more than 90%; in assay [2], more than 90%. The EC50 in assay [1] (CHO-K1 cells) was less than 10 nM; in assay [2], 10 to 100 nM.

As for `C[C@@H](NC[C@H](O)c1ccc(F)c2[nH]ncc12)C1CC1` [I-10], the Emax in assay [1] (CHO-K1, CHO-K1 cells) was more than 90%; in assay [2], 70 to 90%. Moreover, the EC50 in assay [1] (CHO-K1 cells) and in assay [2] was less than 10 nM in each case.

Consider `C[C@H](NC[C@H](O)c1cccc2[nH]ncc12)C1CC1` [I-11], for which the Emax in assay [1] (CHO-K1, CHO-K1 cells) was more than 90%; in assay [2], more than 90%. In addition, the EC50 in assay [1] (CHO-K1 cells) and in assay [2] was less than 10 nM throughout.

Take `CC(C)(NC[C@H](O)c1cccc2[nH]ncc12)C1CC1` [I-12]: in assay [1] (CHO-K1 cells), the EC50 is less than 10 nM and the Emax is more than 90%. For the same molecule, in assay [2], the EC50 was less than 10 nM and the Emax was more than 90%.

Consider `C[C@@H](NC[C@H](O)c1cccc2[nH]ncc12)C1CC1` [I-13], for which the Emax in assay [1] (CHO-K1, CHO-K1 cells) is more than 90%; in assay [2], more than 90%. The EC50 in assay [1] (CHO-K1 cells) and in assay [2] was less than 10 nM each time.

For the molecule `C[C@H](NC[C@H](O)c1ccc(F)c2[nH]ncc12)C(C)(C)C` [I-14], the Emax in assay [1] (CHO-K1, CHO-K1 cells) fell in the range of 50 to 70%; in assay [2], 70 to 90%. The EC50 in assay [1] (CHO-K1 cells) is less than 10 nM; in assay [2], 100 to 1000 nM.

With `COc1ccc(C[C@@H](C)NC[C@H](O)c2cc(F)cc3[nH]ncc23)cc1` [I-15], the EC50 in assay [1] (CHO-K1 cells) and in assay [2] was less than 10 nM each time. The maximal effect (Emax) in assay [1] (CHO-K1 cells) and in assay [2] was more than 90% throughout.

Take `C[C@@H](NC[C@H](O)c1ccc(F)c2[nH]ncc12)C(C)(C)C` [I-16]: the Emax in assay [1] (CHO-K1, CHO-K1 cells) is more than 90%; in assay [2], more than 90%. Further, the EC50 is less than 10 nM in assay [1] (CHO-K1 cells) and 10 to 100 nM in assay [2].

Consider `COc1ccc(C[C@@H](C)NC[C@H](O)c2ccc(F)c3[nH]ncc23)cc1` [I-17], for which, in assay [1] (CHO-K1 cells), the EC50 was less than 10 nM and the Emax was more than 90%. Besides, in assay [2], the EC50 was less than 10 nM and the Emax is more than 90%.

`COc1ccc(C[C@@H](C)NC[C@H](O)c2cccc3[nH]nc(F)c23)cc1` [I-18]: in assay [1] (CHO-K1 cells), the EC50 is less than 10 nM and the Emax is more than 90%. For the same molecule, in assay [2], the EC50 was less than 10 nM and the Emax was more than 90%.

`CC(C)(NC[C@H](O)c1cc(F)cc2[nH]ncc12)C1CC1` [I-19]: the Emax was more than 90% in assay [1] (CHO-K1, CHO-K1 cells) and more than 90% in assay [2]. In addition, the EC50 in assay [1] (CHO-K1 cells) and in assay [2] was less than 10 nM throughout.

`CC(C)(NC[C@H](O)c1cccc2[nH]nc(F)c12)C1CC1` [I-20]: the Emax in assay [1] (CHO-K1, CHO-K1 cells) is more than 90%; in assay [2] it was more than 90%. The EC50 in assay [1] (CHO-K1 cells) and in assay [2] was less than 10 nM in each case.

Take `CC(C)(NC[C@H](O)c1ccc(F)c2[nH]ncc12)C1CC1` [I-21]: in assay [1] (CHO-K1 cells), the EC50 was less than 10 nM and the Emax is more than 90%. In addition, in assay [2], the EC50 was less than 10 nM and the Emax is more than 90%.

For the molecule `CC(C)C(C)(C)NC[C@H](O)c1ccc(F)c2[nH]ncc12` [I-22], in assay [1] (CHO-K1 cells), the EC50 was less than 10 nM and the Emax was more than 90%. For the same molecule, in assay [2], the EC50 is 10 to 100 nM and the Emax is more than 90%.

In the case of `CCC(C)(CC)NC[C@H](O)c1cccc2[nH]ncc12` [I-23], the EC50 in assay [1] (CHO-K1 cells) and in assay [2] was less than 10 nM in each case. For the same molecule, the Emax in assay [1] (CHO-K1 cells) and in assay [2] was more than 90% each time.

As for `CC[C@H](C)NC[C@H](O)c1cccc2[nH]ncc12` [I-24], in assay [1] (CHO-K1 cells), the EC50 is less than 10 nM and the Emax is more than 90%. For the same molecule, in assay [2], the EC50 was 10 to 100 nM and the Emax was more than 90%.

Take `CC(C)C(C)(C)NC[C@H](O)c1cccc2[nH]nc(F)c12` [I-25]: in assay [1] (CHO-K1 cells), the EC50 is less than 10 nM and the Emax is more than 90%. In assay [2], the EC50 was less than 10 nM and the Emax is more than 90%.

As to `CCC(C)(CC)NC[C@H](O)c1cc(F)cc2[nH]ncc12` [I-26], the Emax in assay [1] (CHO-K1, CHO-K1 cells) was more than 90%; in assay [2], more than 90%. For the same molecule, the EC50 in assay [1] (CHO-K1 cells) and in assay [2] was less than 10 nM in each case.

On to `CC(C)[C@@H](C)NC[C@H](O)c1cc(F)cc2[nH]ncc12` [I-27], for which, in assay [1] (CHO-K1 cells), the EC50 is less than 10 nM and the Emax was more than 90%. In addition, in assay [2], the EC50 was less than 10 nM and the Emax was more than 90%.

With `CCC(C)(CC)NC[C@H](O)c1ccc(F)c2[nH]ncc12` [I-28], the Emax in assay [1] (CHO-K1, CHO-K1 cells) is more than 90%; in assay [2] it was more than 90%. The EC50 in assay [1] (CHO-K1 cells) and in assay [2] was less than 10 nM in each case.

On to `CC(C)C(C)(C)NC[C@H](O)c1cccc2[nH]ncc12` [I-29], for which the maximal response (Emax) is more than 90% in assay [1] (CHO-K1, CHO-K1 cells) and more than 90% in assay [2]. For the same molecule, the figures for the EC50 in assay [1] (CHO-K1 cells) and in assay [2] were less than 10 nM and 10 to 100 nM, respectively.

For `CCC(C)(CC)NC[C@H](O)c1cccc2[nH]nc(F)c12` [I-30], in assay [1] (CHO-K1 cells), the EC50 was less than 10 nM and the Emax is more than 90%. Further, in assay [2], the EC50 was less than 10 nM and the maximal response (Emax) is more than 90%.

`CC(C)[C@@H](C)NC[C@H](O)c1ccc(F)c2[nH]ncc12` [I-31]: the Emax was more than 90% in assay [1] (CHO-K1, CHO-K1 cells) and 70 to 90% in assay [2]. Besides, the EC50 in assay [1] (CHO-K1 cells) was less than 10 nM; in assay [2], 10 to 100 nM.

For `CC(C)C(C)(C)NC[C@H](O)c1cc(F)cc2[nH]ncc12` [I-32], the EC50 in assay [1] (CHO-K1 cells) is less than 10 nM; in assay [2], 10 to 100 nM. For the same molecule, the Emax in assay [1] (CHO-K1 cells) and in assay [2] was more than 90% in each case.

The record behind these values is patent US20240270701A1, “BETA ADRENERGIC AGONIST AND METHODS OF USING THE SAME” (Curasen Therapeutics, Inc., priority 2021, published 2024).
